Data taken from US8758802B2, “Methods of inhibiting cataracts and presbyopia” (University of Massachusetts, priority 2009, dated 2014).
“Also recorded” adds a separate entry of the source.

System: βL-crystallin
Assay: Dynamic light scattering of βL-crystallin solutions with added agents (aggregate size, hydrodynamic radius)
Format: biochemical, bovine
Conditions: for Effect on βL-crystallin aggregate size / de-clumping: SDS 0.1 mg/mL (below CMC), 0.2 mg/mL βL-crystallin in water, sulfate
Description: βL-crystallin (C5163 Sigma-Aldrich) and α-crystallin (C4163 Sigma-Aldrich) from a bovine eye lens were stored in a biological freezer. The four stock solutions prepared for these experiments were 2 mg/mL βL-crystallin in water, 2 mg/mL βL-crystallin in PBS, 2 mg/mL α-crystallin in water, and 0.15M NaCl in water. All water used in these experiments was filtered and deionized. A stock solution of 2 mg/mL βL-crystallin in water was prepared by mixing 10 mg of βL-crystallin with 5 mL water in a decontaminated 20 mL scintillation vial. A similar procedure was followed to prepare 2 mg/mL α-crystallin in water and 2 mg/mL βL-crystallin in PBS.
A dilution of these stock solutions was used to create 2 mL samples of 0.2 mg/mL βL-crystallin in water, 0.2 mg/mL α-crystallin in water, 0.2 mg/mL βL-crystallin, 0.15M NaCl in water, 0.2 mg/mL βL-crystallin, 0.6 mg/mL α-crystallin in water, and 0.2 mg/mL βL-crystallin in PBS.
An ALV instrument with an Ar laser (λ=514.5 nm) was used to collect DLS data from 35°-65° in 5° increments and from 70°-90° in 10° increments. An ALV5000 correlator was used to analyze the data. Glass DLS tubes (4 mL) were sonicated in an extremely dilute solution of Micro-90 for 1 hour and then rinsed with filtered deionized water eight times followed by acetone eight times. The concentration of crystallins in the lens is typically very high. However, dilute solutions of the crystallins are required for DLS characterization, as set forth by limitations imposed by the Zimm regime.
The hydrodynamic radius, Rh, can be determined using the Stokes-Einstein equation,
As mentioned earlier, α-crystallin acts as a chaperone protein in the lens as it either diminishes or inhibits aggregation. In order to determine the impact of α-crystallin and its chaperone abilities on βL-crystallin, a solution of 0.2 mg/mL βL-crystallin, 0.6 mg/mL α-crystallin in water at 23° C. was prepared for DLS. […] The addition of the chaperone was thereby seen to remove the aggregate.
In order to determine if the aggregation of the crystallins is electrostatic in nature, dynamic light scattering was accomplished on 0.2 mg/mL βL-crystallin in a 0.15M NaCl water solution, (FIG. 8).
The effect of SDS, sodium dodecyl sulfate (purchased from Sigma Aldrich) a […] surfactant on βL-crystallin deaggregation was studied as in Example 4. The CMC for SDS is 2.36 mg/ml, so the SDS concentration was maintained below that value.

[1] = 0.2 mg/mL βL-crystallin, 0.15M NaCl in water

Compound	Rh of βL-crystallin aggregate (slow mode) after addition of the salt (0.2 mg/mL βL-crystallin in 0.15M NaCl water solution, without salt 230 nm)	Effect of salt on fast mode (unaggregated βL-crystallin) [1]	Reduction in aggregate Rh upon addition of NaCl [1]	Effect on βL-crystallin aggregate size (about 0.15 M NaCl)	Effect on βL-crystallin aggregate size / de-clumping (listed as sodium dodecyl sulfate)	Effect on βL-crystallin aggregate size / de-clumping
[Cl-].[Na+] [NaCl]	120 nm	not significantly affected	two-fold reduction	decreases βL-crystallin aggregate size	–	–
CCCCCCCCCCCCOS(=O)(=O)[O-].[Na+] [SDS, sodium dodecyl sulfate, reference compound]	–	–	–	–	no effect; also recorded: does not reduce βL-crystallin aggregate sizes	did not stimulate de-clumping
